Values joined by “and” are separate entries in the source; they are usually repeats but may differ in a detail not shown here. Identical values can stand only once. Like-named read-outs stand apart in the source and are kept apart here.
Key:
mtrC-lacZ expression = format: cell-based, Neisseria gonorrhoeae; conditions: for β-galactosidase activity, Mean: second (right) untitled block of sheet Figure S10 (mtrC); for mtrC-lacZ β-galactosidase activity, Mean: left block of sheet (mtrCDE); for β-galactosidase activity, mtrC-lacZ, Mean: strain ΔmtrR + mtrR WT (pGCC3-mtrR); for Plate-6 (Testosterone) Miller units, Mean: upper four plate rows; for Miller units, Mean: right block Plate-4
MtrR W136A = target: T1, MtrR W136A (Neisseria gonorrhoeae, UniProt P39897, W136A); assay: biochemical; format: binding
T1 construct: Hexa-histidine tag with TEV protease cleavage site (N, cleaved yes); made in house; host or cells: E. coli Rosetta Gami B(DE3) pLysS
T1 sequence (P39897 whole entry W136A): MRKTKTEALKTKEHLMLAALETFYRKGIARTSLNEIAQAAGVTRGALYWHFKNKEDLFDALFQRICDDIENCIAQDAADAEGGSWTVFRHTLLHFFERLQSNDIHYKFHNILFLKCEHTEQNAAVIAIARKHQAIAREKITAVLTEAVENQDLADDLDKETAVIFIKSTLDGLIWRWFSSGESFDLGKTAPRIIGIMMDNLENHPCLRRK

[1] = strain ΔmtrR + mtrR WT, 25 µM hormone
[2] = strain ΔmtrR + mtrR WT, 50 µM hormone

C[C@]12CC[C@H]3[C@@H](CCC4=CC(=O)CC[C@@]43C)[C@@H]1CC[C@@H]2O [Testosterone, testosterone]
β-galactosidase activity, Mean (mtrC-lacZ expression; strain ΔmtrR + mtrR R176E, 50 µM hormone): 83 Miller units | mtrC-lacZ β-galactosidase activity, Mean (mtrC-lacZ expression; strain ΔmtrR + mtrR R176E, 100 µM hormone): 238 Miller units | β-galactosidase activity, mtrC-lacZ, Mean (mtrC-lacZ expression; hormone 6.25 µM): 125 Miller units | β-galactosidase activity, mtrC-lacZ, Mean (mtrC-lacZ expression; hormone 12.5 µM): 130 Miller units | β-galactosidase activity, mtrC-lacZ, Mean (mtrC-lacZ expression; hormone 25 µM): 133 Miller units | β-galactosidase activity, mtrC-lacZ, Mean (mtrC-lacZ expression; hormone 50 µM): 152 Miller units | mtrC-lacZ β-galactosidase activity, Mean (mtrC-lacZ expression; strain ΔmtrR + mtrR WT, 1 µM hormone): 107 Miller units | β-galactosidase activity, Mean (mtrC-lacZ expression; strain ΔmtrR + mtrR WT, 6.25 µM hormone): 45 Miller units | mtrC-lacZ β-galactosidase activity, Mean (mtrC-lacZ expression; strain ΔmtrR + mtrR WT, 10 µM hormone): 177 Miller units | β-galactosidase activity, Mean (mtrC-lacZ expression; strain ΔmtrR + mtrR WT, 12.5 µM hormone): 50 Miller units | mtrC-lacZ β-galactosidase activity, Mean (mtrC-lacZ expression; [1]): 181 Miller units | β-galactosidase activity, Mean (mtrC-lacZ expression; [1]): 70 Miller units | mtrC-lacZ β-galactosidase activity, Mean (mtrC-lacZ expression; [2]): 213 Miller units | β-galactosidase activity, Mean (mtrC-lacZ expression; [2]): 74 Miller units | mtrC-lacZ β-galactosidase activity, Mean (mtrC-lacZ expression; strain ΔmtrR + mtrR WT, 100 µM hormone): 227 Miller units | mtrC-lacZ β-galactosidase activity, Mean (mtrC-lacZ expression; strain ΔmtrR, 1 µM hormone): 334 Miller units | β-galactosidase activity, Mean (mtrC-lacZ expression; strain ΔmtrR, 6.25 µM hormone): 146 Miller units | mtrC-lacZ β-galactosidase activity, Mean (mtrC-lacZ expression; strain ΔmtrR, 10 µM hormone): 358 Miller units | β-galactosidase activity, Mean (mtrC-lacZ expression; strain ΔmtrR, 12.5 µM hormone): 153 Miller units | β-galactosidase activity, Mean (mtrC-lacZ expression; strain ΔmtrR, 25 µM hormone): 155 Miller units | mtrC-lacZ β-galactosidase activity, Mean (mtrC-lacZ expression; strain ΔmtrR, 50 µM hormone): 284 Miller units | β-galactosidase activity, Mean (mtrC-lacZ expression; strain ΔmtrR, 50 µM hormone): 141 Miller units | mtrC-lacZ β-galactosidase activity, Mean (mtrC-lacZ expression; strain ΔmtrR, 100 µM hormone): 369 Miller units | Plate-6 (Testosterone) Miller units, Mean (mtrC-lacZ expression; testosterone 6.25 µM, plate column 3): 69 Miller units | Plate-6 (Testosterone) Miller units, Mean (mtrC-lacZ expression; testosterone 6.25 µM, plate column 9 (second strain set, columns 7-12)): 96 Miller units | Plate-6 (Testosterone) Miller units, Mean (mtrC-lacZ expression; testosterone 12.5 µM, plate column 4): 81 Miller units | Plate-6 (Testosterone) Miller units, Mean (mtrC-lacZ expression; testosterone 12.5 µM, plate column 10 (second strain set, columns 7-12)): 102 Miller units | Plate-6 (Testosterone) Miller units, Mean (mtrC-lacZ expression; testosterone 25 µM, plate column 5): 98 Miller units | Plate-6 (Testosterone) Miller units, Mean (mtrC-lacZ expression; testosterone 25 µM, plate column 11 (second strain set, columns 7-12)): 112 Miller units | Plate-6 (Testosterone) Miller units, Mean (mtrC-lacZ expression; testosterone 50 µM, plate column 6): 117 Miller units | Plate-6 (Testosterone) Miller units, Mean (mtrC-lacZ expression; testosterone 50 µM, plate column 12 (second strain set, columns 7-12)): 119 Miller units | Miller units, Mean (mtrC-lacZ expression; third strain (lower plate half, wells 1-6; not named), testosterone 6.25 µM): 45 Miller units | Miller units, Mean (mtrC-lacZ expression; third strain (lower plate half, wells 1-6; not named), testosterone 12.5 µM): 50 Miller units | Miller units, Mean (mtrC-lacZ expression; third strain (lower plate half, wells 1-6; not named), testosterone 25 µM): 70 Miller units | Miller units, Mean (mtrC-lacZ expression; third strain (lower plate half, wells 1-6; not named), testosterone 50 µM): 74 Miller units | Miller units, Mean (mtrC-lacZ expression; ΔmtrR (by plate layout), testosterone 6.25 µM): 146 Miller units | Miller units, Mean (mtrC-lacZ expression; ΔmtrR (by plate layout), testosterone 12.5 µM): 153 Miller units | Miller units, Mean (mtrC-lacZ expression; ΔmtrR (by plate layout), testosterone 25 µM): 155 Miller units | Miller units, Mean (mtrC-lacZ expression; ΔmtrR (by plate layout), testosterone 50 µM): 141 Miller units | β-galactosidase activity, Miller units (single replicate) (mtrC-lacZ expression; ΔmtrR + mtrR WT in trans, 1 µM, first data set (c15-c36)): 95 Miller units and 106 Miller units | β-galactosidase activity, Miller units (single replicate) (mtrC-lacZ expression; ΔmtrR + mtrR WT in trans, 6.25 µM, second data set (c53-c74)): 36 Miller units and 39 Miller units and 65 Miller units and 38 Miller units | β-galactosidase activity, Miller units (single replicate) (mtrC-lacZ expression; ΔmtrR + mtrR WT in trans, 10 µM, first data set (c15-c36)): 167 Miller units and 179 Miller units | β-galactosidase activity, Miller units (single replicate) (mtrC-lacZ expression; ΔmtrR + mtrR WT in trans, 12.5 µM, second data set (c53-c74)): 52 Miller units and 40 Miller units and 64 Miller units and 45 Miller units | β-galactosidase activity, Miller units (single replicate) (mtrC-lacZ expression; ΔmtrR + mtrR WT in trans, 25 µM, first data set (c15-c36)): 181 Miller units and 185 Miller units | β-galactosidase activity, Miller units (single replicate) (mtrC-lacZ expression; ΔmtrR + mtrR WT in trans, 25 µM, second data set (c53-c74)): 72 Miller units and 60 Miller units and 77 Miller units | β-galactosidase activity, Miller units (single replicate) (mtrC-lacZ expression; ΔmtrR + mtrR WT in trans, 50 µM, first data set (c15-c36)): 185 Miller units and 193 Miller units | β-galactosidase activity, Miller units (single replicate) (mtrC-lacZ expression; ΔmtrR + mtrR WT in trans, 50 µM, second data set (c53-c74)): 89 Miller units and 62 Miller units and 81 Miller units and 65 Miller units | β-galactosidase activity, Miller units (single replicate) (mtrC-lacZ expression; ΔmtrR + mtrR WT in trans, 100 µM, first data set (c15-c36)): 195 Miller units and 175 Miller units | β-galactosidase activity, Miller units (single replicate) (mtrC-lacZ expression; ΔmtrR, 1 µM, first data set (c15-c36)): 360 Miller units and 326 Miller units and 318 Miller units | β-galactosidase activity, Miller units (single replicate) (mtrC-lacZ expression; ΔmtrR, 6.25 µM, second data set (c53-c74)): 213 Miller units and 147 Miller units and 123 Miller units and 100 Miller units | β-galactosidase activity, Miller units (single replicate) (mtrC-lacZ expression; ΔmtrR, 10 µM, first data set (c15-c36)): 393 Miller units and 347 Miller units and 355 Miller units and 336 Miller units | β-galactosidase activity, Miller units (single replicate) (mtrC-lacZ expression; ΔmtrR, 12.5 µM, second data set (c53-c74)): 202 Miller units and 175 Miller units and 120 Miller units and 117 Miller units | β-galactosidase activity, Miller units (single replicate) (mtrC-lacZ expression; ΔmtrR, 25 µM, first data set (c15-c36)): 325 Miller units and 289 Miller units and 330 Miller units and 304 Miller units | β-galactosidase activity, Miller units (single replicate) (mtrC-lacZ expression; ΔmtrR, 25 µM, second data set (c53-c74)): 194 Miller units and 180 Miller units and 119 Miller units and 125 Miller units | β-galactosidase activity, Miller units (single replicate) (mtrC-lacZ expression; ΔmtrR, 50 µM, first data set (c15-c36)): 298 Miller units and 287 Miller units and 282 Miller units and 269 Miller units | β-galactosidase activity, Miller units (single replicate) (mtrC-lacZ expression; ΔmtrR, 50 µM, second data set (c53-c74)): 175 Miller units and 157 Miller units and 99 Miller units | β-galactosidase activity, Miller units (single replicate) (mtrC-lacZ expression; ΔmtrR, 100 µM, first data set (c15-c36)): 429 Miller units and 358 Miller units and 309 Miller units and 379 Miller units | Kd (MtrR W136A): 5.79 ± 1.4 µM
